Publication PMC9395446, “First-in-human phase 1/1b study to evaluate sitravatinib in patients with advanced solid tumors” (Investigational New Drugs, 2022)
Like-named read-outs stand apart in the source and are kept apart here.

Assay: Plasma pharmacokinetics after single and multiple oral doses (noncompartmental analysis)
Assay type: in vivo, human
Conditions: for Cmax / Tmax / AUC: human, plasma, oral; for AUC: read-out: AUCτ,ss, geometric mean (CV%)
Method: In the PK lead-in period, patients received a single oral dose of sitravatinib (10–200 mg) under fasted conditions with at least 200 mL of water, followed by PK sample collection for 3–7 days, depending on emerging PK information. After the PK lead-in period, patients commenced the daily regimen planned for their cohort. Blood samples were collected pre-dose and 0.5 (for 10 mg only), 1, 2, 4, 6, 8, 12, 24, 36, 48, 72 and 168 (for 20–200 mg dose levels) h post-dose from patients following a single oral dose, and at pre-dose, 0.5, 1, 2, 4, 6, 8, 12 and 24 h post-dose following multiple oral doses for the 10–200 mg levels.
PK samples were collected after a single dose during the PK lead-in period and following multiple oral doses during the study. Plasma PK samples were assayed for quantification of sitravatinib. The lower limit of quantification was 0.05 ng/mL. PK parameters were determined using a noncompartmental analysis approach including maximum (peak) concentration (Cmax), time to reach Cmax following drug administration (tmax), area under the plasma concentration–time curves (AUCs), apparent total clearance of the drug from plasma after oral administration, apparent volume of distribution during the terminal phase after administration and terminal elimination half-life (t1/2). PD effects were examined by analyzing VEGF-A ligand and soluble (s)-VEGF-R2 levels in patients’ plasma samples collected before and after sitravatinib administration.

[1] = 200 mg QD, Cycle 1 Day 15, single patient result

With `COCCNCc1ccc(-c2cc3nccc(Oc4ccc(NC(=O)C5(C(=O)Nc6ccc(F)cc6)CC5)cc4F)c3s2)nc1` [sitravatinib, Sitravatinib] the “CL/F at steady state, geometric mean (CV%)” value (shortened to “CL/F at steady state … (CV%)”) (10 mg QD, Cycle 1 Day 8) was 42.5 (42.8); 2 L/h, the “Cav,ss, geometric mean (CV%)” value (10 mg QD, Cycle 1 Day 8) was 9.81 (42.8); 2 ng/mL and the “CL/F at steady state … (CV%)” value (20 mg QD, Cycle 1 Day 15) was 41.2 (6.4); 3 L/h. The “Cav,ss, geometric mean (CV%)” value (20 mg QD, Cycle 1 Day 15) was 20.2 (6.4); 3 ng/mL, the “CL/F at steady state … (CV%)” value (40 mg QD, Cycle 1 Day 15) was 64.6 (156.5); 5 L/h and the “Cav,ss, geometric mean (CV%)” value (40 mg QD, Cycle 1 Day 15) was 25.8 (156.5); 5 ng/mL. For the same compound, the “CL/F at steady state … (CV%)” value (80 mg QD, Cycle 1 Day 15) was 65.7 (104.9); 5 L/h, the “Cav,ss, geometric mean (CV%)” value (80 mg QD, Cycle 1 Day 15) was 50.7 (104.9); 5 ng/mL and the “CL/F at steady state … (CV%)” value (110 mg QD, Cycle 1 Day 15) was 48.9 (44.5); 3 L/h. The “Cav,ss, geometric mean (CV%)” value (110 mg QD, Cycle 1 Day 15) was 93.7 (44.5); 3 ng/mL, the “Interpatient variability for Cmax and AUCτ,ss” value (120 mg QD) was ~ 60% and the “CL/F at steady state … (CV%)” value (120 mg QD, Cycle 1 Day 15) was 75.0 (59.1); 3 L/h. The “Cav,ss, geometric mean (CV%)” value (120 mg QD, Cycle 1 Day 15) was 66.7 (59.1); 3 ng/mL, the “CL/F at steady state … (CV%)” value (150 mg QD, Cycle 1 Day 15) was 68.8 (46.5); 18 L/h and the “Cav,ss, geometric mean (CV%)” value (150 mg QD, Cycle 1 Day 15) was 90.9 (46.5); 18 ng/mL. The “CL/F at steady state” value [1] was 48.4 (NA); 1 L/h, the “Cav,ss” value [1] was 172 (NA); 1 ng/mL and the “Time by which steady-state appeared to be reached” value (QD dosing) was “cycle 1 day 8”. The Cmax (10 mg, 10 mg QD, Cycle 1 Day 8, read-out: Cmax,ss, geometric mean (CV%)) was 11.4 ng/mL, the Tmax (10 mg, 10 mg QD, Cycle 1 Day 8, read-out: tmax,ss, median (min–max)) was 2 h and the Cmax (10 mg, single dose 10 mg, read-out: Cmax, geometric mean (CV%)) was 3.54 ng/mL. It also gave a Tmax (10 mg, single dose 10 mg, read-out: tmax, median (min–max)) of 5.03 h, a Cmax (20 mg, 20 mg QD, Cycle 1 Day 15, read-out: Cmax,ss, geometric mean (CV%)) of 23.7 ng/mL and a Tmax (20 mg, 20 mg QD, Cycle 1 Day 15, read-out: tmax,ss, median (min–max)) of 8.13 h. For the same compound, the Cmax (20 mg, single dose 20 mg, read-out: Cmax, geometric mean (CV%)) was 5.71 ng/mL, the Tmax (20 mg, single dose 20 mg, read-out: tmax, median (min–max)) was 8.04 h and the Cmax (40 mg, 40 mg QD, Cycle 1 Day 15, read-out: Cmax,ss, geometric mean (CV%)) was 32.5 ng/mL. For the same compound, the Tmax (40 mg, 40 mg QD, Cycle 1 Day 15, read-out: tmax,ss, median (min–max)) was 4 h, the Cmax (40 mg, single dose 40 mg, read-out: Cmax, geometric mean (CV%)) was 11.8 ng/mL and the Tmax (40 mg, single dose 40 mg, read-out: tmax, median (min–max)) was 4.05 h. The Cmax (80 mg, 80 mg QD, Cycle 1 Day 15, read-out: Cmax,ss, geometric mean (CV%)) was 69.2 ng/mL, the Tmax (80 mg, 80 mg QD, Cycle 1 Day 15, read-out: tmax,ss, median (min–max)) was 4.01 h and the Cmax (80 mg, single dose 80 mg, read-out: Cmax, geometric mean (CV%)) was 31.7 ng/mL. The Tmax (80 mg, single dose 80 mg, read-out: tmax, median (min–max)) was 6 h, the Cmax (110 mg, 110 mg QD, Cycle 1 Day 15, read-out: Cmax,ss, geometric mean (CV%)) was 119 ng/mL and the Tmax (110 mg, 110 mg QD, Cycle 1 Day 15, read-out: tmax,ss, median (min–max)) was 2 h. The Cmax (110 mg, single dose 110 mg, read-out: Cmax, geometric mean (CV%)) was 49.1 ng/mL, the Tmax (110 mg, single dose 110 mg, read-out: tmax, median (min–max)) was 3.02 h and the Cmax (120 mg, 120 mg QD, Cycle 1 Day 15, read-out: Cmax,ss, geometric mean (CV%)) was 80.4 ng/mL. It also gave a Tmax (120 mg, 120 mg QD, Cycle 1 Day 15, read-out: tmax,ss, median (min–max)) of 4 h, a Cmax (120 mg, single dose 120 mg, read-out: Cmax, geometric mean (CV%)) of 23.8 ng/mL and a Tmax (120 mg, single dose 120 mg, read-out: tmax, median (min–max)) of 8.87 h. The Cmax (150 mg, 150 mg QD, Cycle 1 Day 15, read-out: Cmax,ss, geometric mean (CV%)) was 114 ng/mL, the Tmax (150 mg, 150 mg QD, Cycle 1 Day 15, read-out: tmax,ss, median (min–max)) was 7.83 h and the Cmax (150 mg, single dose 150 mg, read-out: Cmax, geometric mean (CV%)) was 69.3 ng/mL. It also gave a Tmax (150 mg, single dose 150 mg, read-out: tmax, median (min–max)) of 6 h, a Cmax (200 mg, 200 mg QD, Cycle 1 Day 15, single patient result, read-out: Cmax,ss) of 221 ng/mL and a Tmax (200 mg, 200 mg QD, Cycle 1 Day 15, single patient result, read-out: tmax,ss, median (min–max)) of 10 h. The Cmax (200 mg, single dose 200 mg, read-out: Cmax, geometric mean (CV%)) was 85 ng/mL, the Tmax (200 mg, single dose 200 mg, read-out: tmax, median (min–max)) was 5.94 h and the AUC (10 mg QD, Cycle 1 Day 8) was 235 ng·h/mL. The AUC (20 mg QD, Cycle 1 Day 15) was 486 ng·h/mL, the AUC (40 mg QD, Cycle 1 Day 15) was 619 ng·h/mL and the AUC (80 mg QD, Cycle 1 Day 15) was 1220 ng·h/mL.
